Reference: patent publication US20130252935A1, “Monobactams” (PFIZER INC., priority 2010, published 2013)
Values after ≈ are worked out from the molar mass of the structure shown.

Experiments:
Type in all cases: cell-based
[1] = system: Pseudomonas aeruginosa UC-12120; assay: minimum inhibitory concentration (MIC) testing according to CLSI guidelines, Pseudomonas aeruginosa; details: Pseudomonas aeruginosa, UC12120; UC-12120, wild-type, labeled as 1091-05; overnight incubation; lower of duplicate values; read-out: AB-MBT: Pseudomonas aeruginosa 1091-05: MIC (MstRcn)
Method: (§1) In order to assess the compounds biological activity, the in vitro anti-bacterial activity of selected compounds described in the Examples 1-69 was evaluated by minimum inhibitory concentration (MIC) testing according to Clinical and Laboratory Standards Institute (CLSI, formerly NCCLS) guidelines. See: Clinical and Laboratory Standards Institute. Methods for Dilution Antimicrobial Susceptibility Tests for Bacteria that Grow Aerobically; Approved Standard-Eighth Edition. CLSI document M7-A8 [ISBN 1-56238-689-1]. Clinical and Laboratory Standards Institute, 940 West Valley Road, Suite 1400, Wayne, Pa. 19087-1898 USA, 2006; also Clinical and Laboratory Standards Institute. Performance Standards for Antimicrobial Susceptibility Testing; Twentieth Informational Supplement. CLSI document M100-S20 [ISBN1-56238-716-2]. Clinical and Laboratory Standards Institute.
(§2) The MIC determination is a standard laboratory method for evaluating the antibacterial activity of a compound. The MIC represents the lowest drug concentration that inhibits visible growth of bacteria following overnight incubation. […] Typically, the drug concentration range is broken down into 2-fold increments (e.g. 0.06 μg/mL, 0.12 μg/mL. 0.25 μg/mL, 0.50 μg/mL, 1.0 μg/mL, etc.) and the various drug concentrations are all individually incubated overnight with approximately the same number of bacteria. The MIC is then determined by visually inspecting the drug effect at each concentration, and identifying the lowest drug concentration that has inhibited bacterial growth as compared to the drug free control. Typically, bacteria continue to grow at drug concentrations lower than the MIC and don't grow at concentrations at and above the MIC.
(§3) The MIC values described in Table 1 below were derived from assays wherein each test compound was evaluated in duplicate. In cases where the duplicate values varied by 0-2-fold, the lower of the two values was reported below. Generally speaking, if the duplicate values varied by more than 2-fold, the assay was considered non-valid and was repeated until the variation between duplicate runs was ≦2-fold. In line with the CLSI guidelines referred to above, both control organisms and reference compounds were utilized in each MIC assay to provide proper quality control. MIC values generated with these control organisms and reference compounds were required to fall within a defined range for the assay to be considered valid and be included herein. Those skilled in the art will recognize that MIC values can and do vary from experiment to experiment. Generally speaking, it should be recognized that MIC values often vary +/−2-fold from experiment to experiment. While a single MIC is reported for each compound and each microorganism, the reader should not conclude that each compound was only tested once. Several of the compounds were subjected to multiple tests. The data reported in Table 1 is reflective of the compounds relative activity and different MICs may have been generated on these occasions in light with the guidelines described above.
(§4) The following bacterial strains were used in these MIC determinations:
1) Pseudomonas aeruginosa UC-12120: Wild-type, labeled as 1091-05;

[2] = system: Klebsiella pneumoniae 1000-02; assay: minimum inhibitory concentration (MIC) testing according to CLSI guidelines, Klebsiella pneumoniae; details: Klebsiella pneumoniae; ciprofloxacin-resistant, ESBL-expressing clinical isolate 1000-02; overnight incubation; lower of duplicate values; read-out: AB-MBT: Klebsiella pneumoniae 1000-02: MIC (MstRcnt)
Method: as §1, §2, §3, §4
2) Klebsiella pneumoniae: Ciprofloxacin-resistant isolate, expresses extended-spectrum beta-lactamases (ESBL), clinical isolate, labeled as 1000-02;

[3] = system: Acinetobacter baumannii/haemolyticus AB-3167; assay: minimum inhibitory concentration (MIC) testing according to CLSI guidelines, Acinetobacter; details: Acinetobacter baumannii; multidrug-resistant clinical isolate AB-3167; overnight incubation; lower of duplicate values; read-out: AB-MBT: Acinetobacter baumanii AB-3167: MIC (MstRcnt)
Method: as §1, §2, §3, §4
3) Acinetobacter baumannii/haemolyticus: Multidrug-resistant clinical isolate, labeled as AB-3167.

Compound	MIC [1]	MIC [2]	MIC [3]
CC(C)(O/N=C(\C(=O)N[C@@H]1C(=O)N(S(=O)(=O)O)[C@@H]1Cn1cc(COCc2cc(=O)c(O)cn2O)nn1)c1csc(N)n1)C(=O)O [Example 1, 2-({[(1Z)-1-(2-amino-1,3-thiazol-4-yl)-2-({(2R,3S)-2-[(4-{[(1,5-dihydroxy-4-oxo-1,4-dihydropyridin-2-yl)methoxy]methyl}-1H-1,2,3-triazol-1-yl)methyl]-4-oxo-1-sulfoazetidin-3-yl}amino)-2-oxoethylidene]amino}oxy)-2-methylpropanoic acid]	0.25 µg/mL (≈ 0.372 µM)	0.25 µg/mL (≈ 0.372 µM)	0.5 µg/mL (≈ 0.744 µM)
CC(C)(O/N=C(\C(=O)N[C@@H]1C(=O)N(S(=O)(=O)O)[C@@H]1Cn1cc(-c2cc(=O)c(O)cn2O)nn1)c1csc(N)n1)C(=O)O [Example 3, 2-({[(1Z)-1-(2-amino-1,3-thiazol-4-yl)-2-{[(2R,3S)-2-{[4-(1,5-dihydroxy-4-oxo-1,4-dihydropyridin-2-yl)-1H-1,2,3-triazol-1-yl]methyl}-4-oxo-1-sulfoazetidin-3-yl]amino}-2-oxoethylidene]amino}oxy)-2-methylpropanoic acid]	0.125 µg/mL (≈ 0.199 µM)	0.25 µg/mL (≈ 0.398 µM)	0.5 µg/mL (≈ 0.797 µM)
CC(C)(O/N=C(\C(=O)N[C@@H]1C(=O)N(S(=O)(=O)O)[C@@H]1CNC(=O)NCc1cc(=O)c(O)cn1O)c1csc(N)n1)C(=O)O [Example 4, 2-({[(1Z)-1-(2-amino-1,3-thiazol-4-yl)-2-({(2R,3S)-2-[({[(1,5-dihydroxy-4-oxo-1,4-dihydropyridin-2-yl)methyl]carbamoyl}amino)methyl]-4-oxo-1-sulfoazetidin-3-yl}amino)-2-oxoethylidene]amino}oxy)-2-methylpropanoic acid]	0.125 µg/mL (≈ 0.198 µM)	0.125 µg/mL (≈ 0.198 µM)	0.5 µg/mL (≈ 0.79 µM)
CC(C)(O/N=C(\C(=O)N[C@@H]1C(=O)N(S(=O)(=O)O)[C@@H]1CNC(=O)C1CN(C(=O)c2cc(=O)c(O)c[nH]2)C1)c1csc(N)n1)C(=O)O [Example 8, 2-({[(1Z)-1-(2-amino-1,3-thiazol-4-yl)-2-{[(2R,3S)-2-{[({1-[(5-hydroxy-4-oxo-1,4-dihydropyridin-2-yl)carbonyl]azetidin-3-yl}carbonyl)amino]methyl}-4-oxo-1-sulfoazetidin-3-yl]amino}-2-oxoethylidene]amino}oxy)-2-methylpropanoic acid]	1 µg/mL (≈ 1.49 µM)	4 µg/mL (≈ 5.96 µM)	1 µg/mL (≈ 1.49 µM)
CC(C)(O/N=C(\C(=O)N[C@@H]1C(=O)N(S(=O)(=O)O)[C@@H]1CNC(=O)C1CN(Cc2cc(=O)c(O)c[nH]2)C1)c1csc(N)n1)C(=O)O [Example 9, 2-({[(1Z)-1-(2-amino-1,3-thiazol-4-yl)-2-{[(2R,3S)-2-{[({1-[(5-hydroxy-4-oxo-1,4-dihydropyridin-2-yl)methyl]azetidin-3-yl}carbonyl)amino]methyl}-4-oxo-1-sulfoazetidin-3-yl]amino}-2-oxoethylidene]amino}oxy)-2-methylpropanoic acid]	4 µg/mL (≈ 6.09 µM)	4 µg/mL (≈ 6.09 µM)	2 µg/mL (≈ 3.05 µM)
CC(C)(O/N=C(\C(=O)N[C@@H]1C(=O)N(S(=O)(=O)O)[C@@H]1CNC(=O)c1cc(=O)c(O)c[nH]1)c1csc(N)n1)C(=O)O [Example 10, 2-({[(1Z)-1-(2-amino-1,3-thiazol-4-yl)-2-{[(2R,3S)-2-({[(5-hydroxy-4-oxo-1,4-dihydropyridin-2-yl)carbonyl]amino}methyl)-4-oxo-1-sulfoazetidin-3-yl]amino}-2-oxoethylidene]amino}oxy)-2-methylpropanoic acid]	0.125 µg/mL (≈ 0.213 µM)	0.5 µg/mL (≈ 0.851 µM)	0.25 µg/mL (≈ 0.425 µM)
CC(C)(O/N=C(\C(=O)N[C@@H]1C(=O)N(S(=O)(=O)[O-])[C@@H]1CNC(=O)c1cc(=O)c(O)cn1O)c1csc(N)n1)C(=O)[O-].[Na+].[Na+] [Example 11, 2-({[(1Z)-1-(2-amino-1,3-thiazol-4-yl)-2-{[(2R,3S)-2-({[(1,5-dihydroxy-4-oxo-1,4-dihydropyridin-2-yl)carbonyl]amino}methyl)-4-oxo-1-sulfoazetidin-3-yl]amino}-2-oxoethylidene]amino}oxy)-2-methylpropanoic acid, disodium salt]	0.5 µg/mL	0.06 µg/mL	1 µg/mL
CC(C)(O/N=C(\C(=O)N[C@@H]1C(=O)N(S(=O)(=O)O)[C@@H]1COC(=O)c1cc(-c2cc(=O)c(O)c[nH]2)no1)c1csc(N)n1)C(=O)O [Example 12, 2-({[(1Z)-1-(2-amino-1,3-thiazol-4-yl)-2-({(2S,3S)-2-[({[3-(5-hydroxy-4-oxo-1,4-dihydropyridin-2-yl)isoxazol-5-yl]carbonyl}oxy)methyl]-4-oxo-1-sulfoazetidin-3-yl}amino)-2-oxoethylidene]amino}oxy)-2-methylpropanoic acid]	4 µg/mL (≈ 6.1 µM)	0.25 µg/mL (≈ 0.381 µM)	16 µg/mL (≈ 24.4 µM)

Continued, in another order:

MIC [1]	MIC [2]	Compound	MIC [3]
2 µg/mL (≈ 3.27 µM)	8 µg/mL (≈ 13.1 µM)	CC(C)(O/N=C(\C(=O)N[C@@H]1C(=O)N(S(=O)(=O)O)[C@@H]1Cn1cc(-c2cc(=O)c(O)c[nH]2)nn1)c1csc(N)n1)C(=O)O [Example 2, 2-({[(1Z)-1-(2-amino-1,3-thiazol-4-yl)-2-{[(2R,3S)-2-{[4-(5-hydroxy-4-oxo-1,4-dihydropyridin-2-yl)-1H-1,2,3-triazol-1-yl]methyl}-4-oxo-1-sulfoazetidin-3-yl]amino}-2-oxoethylidene]amino}oxy)-2-methylpropanoic acid]	8 µg/mL (≈ 13.1 µM)
0.125 µg/mL	4 µg/mL	CC(C)(O/N=C(\C(=O)N[C@@H]1C(=O)N(S(=O)(=O)[O-])[C@@H]1CNC(=O)OCc1cc(=O)c(O)cn1O)c1csc(N)n1)C(=O)[O-].[Na+].[Na+] [Example 5, disodium 2-({[(1Z)-1-(2-amino-1,3-thiazol-4-yl)-2-({(2R,3S)-2-[({[(1,5-dihydroxy-4-oxo-1,4-dihydropyridin-2-yl)methoxy]carbonyl}amino)methyl]-4-oxo-1-sulfonatoazetidin-3-yl}amino)-2-oxoethylidene]amino}oxy)-2-methylpropanoate]	1 µg/mL
–	8 µg/mL (≈ 12.4 µM)	CC(C)(O/N=C(\C(=O)N[C@@H]1C(=O)N(S(=O)(=O)O)[C@@H]1COC(=O)CNC(=O)c1cc(O)c(O)cn1)c1csc(N)n1)C(=O)O [Example 6, 2-({[(1Z)-1-(2-amino-1,3-thiazol-4-yl)-2-({(2S,3S)-2-[({N-[(4,5-dihydroxypyridin-2-yl)carbonyl]glycyl}oxy)methyl]-4-oxo-1-sulfoazetidin-3-yl}amino)-2-oxoethylidene]amino}oxy)-2-methylpropanoic acid]	1 µg/mL (≈ 1.55 µM)
0.125 µg/mL (≈ 0.189 µM)	8 µg/mL (≈ 12.1 µM)	CC(C)(O/N=C(\C(=O)N[C@@H]1C(=O)N(S(=O)(=O)O)[C@@H]1COC(=O)CNC(=O)c1cc(=O)c(O)cn1O)c1csc(N)n1)C(=O)O [Example 7, 2-({[(1Z)-1-(2-amino-1,3-thiazol-4-yl)-2-({(2S,3S)-2-[({N-[(1,5-dihydroxy-4-oxo-1,4-dihydropyridin-2-yl)carbonyl]glycyl}oxy)methyl]-4-oxo-1-sulfoazetidin-3-yl}amino)-2-oxoethylidene]amino}oxy)-2-methylpropanoic acid]	0.5 µg/mL (≈ 0.756 µM)
